assay: recombinant barcode read abundance after kanamycin selection (control-corrected) (log10(CPM+1)); higher = more efficient recombination; sequences stand for … in AGTGCAGAGAAAATCGGCCAGTTTTCTCTGCCTGCAGTCCGCATGCCGT…AGATTTATGCAGCGGACTGCCTTTCTCCCAAAGTGATAAACCGGACAGTATCATGGACCGGTTTTCCCGGTAATCCGTATTTGCAAGGTTGGTTTCACT; site = the 11-nt target
How it was run: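 Values are log10(CPM+1) from a pooled E. coli screen of targets paired with IS621 bridge RNA target-binding loops. Recombination efficiency here means counts per million of recombinant-junction barcodes, averaged and control-corrected. Plates were chloramphenicol/ampicillin LB agar for the control and chloramphenicol/ampicillin/kanamycin with 0.1 mM IPTG, two replicates each.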
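Note: IS621 recombinase and bridge RNA in Escherichia coli cells.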

Row | Sequence | recombinant barcode read abundance (log10)
1 | GTGGTACCTTGGGTTCTAACCTGTTGCAT (site ACACGGACTTA) | 0.0235
2 | GTGGTACCTTGGGTTCTAACCTGTTGCAT (site GTGGTACCTAT) | 2.48
3 | GTGGTACCTTGGGTTCTAACCTGTTGCCT (site GTGGTAACTAG) | 0.885
4 | GTGGTACCTTGGGTTCTAACCTGTTGCCT (site GTGGTACCTAG) | 2.77
5 | GTGGTACCTTGGGTTCTAACCTGTTGCCT (site GTGGTAGCTAG) | 0.0565
6 | GTGGTACCTTGGGTTCTAACCTGTTGCCT (site GTGGTATCTAG) | 0.391
7 | GTGGTTCCTTGGGTTCTAACCTGTTGCCT (site GTGGTTCCTAG) | 1.61
8 | GTGGTTCCTTGGGTTCTAACCTGTTGCCT (site GTTGGTCCTAG) | 0.112
9 | GTGTACCCTTGGGTTCTAACCTGTTGCCT (site GAGTACCCTAG) | 0.64
10 | GTGTACCCTTGGGTTCTAACCTGTTGCCT (site GCGTACCCTAG) | 1.13
11 | GTGTACCCTTGGGTTCTAACCTGTTGCCT (site GGGTACCCTAG) | 0.068
12 | GTGTACCCTTGGGTTCTAACCTGTTGCCT (site GTGTACCCTAG) | 0.918
13 | GTGTACCCTTGGGTTCTAACCTGTTGCGC (site GTGTACCCTAC) | 0.587
14 | GTGTACCCTTGGGTTCTAACCTGTTGCGC (site GTGTACCCTCC) | 0.141
15 | GTGTACCCTTGGGTTCTAACCTGTTGCGC (site GTGTACCCTGC) | 3.13
16 | GTGTACCCTTGGGTTCTAACCTGTTGCGC (site GTGTACCCTTC) | 0.31
17 | GTGTACCCTTGGGTTCTAACCTGTTGCGT (site GTGTACCCTAC) | 3.59
18 | GTGTACCCTTGGGTTCTAACCTGTTGCGT (site GTGTACCCTCC) | 1.66
19 | GTGTACCCTTGGGTTCTAACCTGTTGCGT (site GTGTACCCTGC) | 2.29
20 | GTGTACCCTTGGGTTCTAACCTGTTGCGT (site GTGTACCCTTC) | 0.185
21 | GTGTATACTTGGGTTCTAACCTGTTGCAT (site GTGTATACTAT) | 0.589
22 | GTGTATACTTGGGTTCTAACCTGTTGCAT (site TAACTAGCTTA) | 0.0503

Row | Sequence | recombinant barcode read abundance (log10)
23 | GTGTATCCTTGGGTTCTAACCTGTTGCTT (site GTGCCTCCTAA) | 0.0308
24 | GTGTATCCTTGGGTTCTAACCTGTTGCTT (site GTGTATCCTAA) | 0.664
25 | GTGTCAACTTGGGTTCTAACCTGTTGCCT (site GTGTCAACTAG) | 0.343
26 | GTGTCAACTTGGGTTCTAACCTGTTGCCT (site GTGTCACCTAG) | 0.0106
27 | GTGTCAACTTGGGTTCTAACCTGTTGCCT (site GTGTCAGCTAG) | 0.0423
28 | GTGTCAACTTGGGTTCTAACCTGTTGCCT (site GTGTCATCTAG) | 0.0225
29 | GTGTCAGCTTGGGTTCTAACCTGTTGCCT (site GTGTCAACTAG) | 0.166
30 | GTGTCAGCTTGGGTTCTAACCTGTTGCCT (site GTGTCACCTAG) | 0.383
31 | GTGTCAGCTTGGGTTCTAACCTGTTGCCT (site GTGTCAGCTAG) | 1.56
32 | GTGTCAGCTTGGGTTCTAACCTGTTGCCT (site GTGTCATCTAG) | 0.02
33 | GTGTCATCTTGGGTTCTAACCTGTTGCCT (site GTGTCAACTAG) | 0.142
34 | GTGTCATCTTGGGTTCTAACCTGTTGCCT (site GTGTCACCTAG) | 0.0183
35 | GTGTCATCTTGGGTTCTAACCTGTTGCCT (site GTGTCAGCTAG) | 0.0185
36 | GTGTCATCTTGGGTTCTAACCTGTTGCCT (site GTGTCATCTAG) | 0.935
37 | GTGTCCTCTTGGGTTCTAACCTGTTGCGT (site CAAAAGGCTCG) | 0.039
38 | GTGTCCTCTTGGGTTCTAACCTGTTGCGT (site GTGTCCTCTAC) | 2.58
39 | GTGTCTCCTTGGGTTCTAACCTGTTGCCG (site GTCTCTCCTCG) | 0.0207
40 | GTGTCTCCTTGGGTTCTAACCTGTTGCCG (site GTGTCTCCTCG) | 0.0325
41 | GTGTGTACTTGGGTTCTAACCTGTTGCCA (site GAGTGAACTTG) | 0.0252
42 | GTGTGTACTTGGGTTCTAACCTGTTGCCA (site GTGTGTACTTG) | 0.488
43 | GTGTGTCCTTGGGTTCTAACCTGTTGCAT (site GTGTATCCTAT) | 0.381

Reference: the supplement of paper PMC11208160
